{"source": "paper PMC5657151", "about": "(Pediatric blood & cancer, 2017)", "key": {"[1]": {"design": "species or system human", "details": "in vivo"}, "[2]": {"assay_type": "in vivo, human", "details": "for AUC(0-t) / Cmax: median (range)"}, "[3]": {"test_system": "relapsed or refractory solid tumors", "experiment": "Pediatric phase 1 trial: tumor response", "assay_type": "in vivo, human"}, "[4]": {"details": "adults, PO bid, ref [6], [60]–[62], cited from earlier work"}}, "note": "“Also recorded” adds a separate entry of the source. Like-named read-outs stand apart in the source and are kept apart here.", "data": [{"molecule": "O=C1NC(=O)[C@@H](c2cn3c4c(cccc24)CCC3)[C@@H]1c1c[nH]c2ccccc12", "note": "[Tivantinib]", "values": [{"measurement": "Anemia, maximum Gr. 1 (number of patients)", "setting": "[1]; human", "result": 4}, {"measurement": "Grade 1 or 2 anemia (number)", "setting": "[1]; human", "result": 12}, {"measurement": "Grade 1 or 2 fatigue (number)", "setting": "[1]; human", "result": 8}, {"measurement": "Grade 1 or 2 hypoalbuminemia (number)", "setting": "[1]; human", "result": 4}, {"measurement": "Grade 1 or 2 leukopenia (number)", "setting": "[1]; human", "result": 5}, {"measurement": "Grade 1 or 2 lymphopenia (number)", "setting": "[1]; human", "result": 8}, {"measurement": "Grade 1 or 2 nausea (number)", "setting": "[1]; human", "result": 5}, {"measurement": "Grade 1 or 2 neutropenia (number)", "setting": "[1]; human", "result": 5}, {"measurement": "Grade 1 or 2 thrombocytopenia (number)", "setting": "[1]; human", "result": 3}, {"measurement": "Grade 1 or 2 vomiting (number)", "setting": "[1]; human", "result": 5}, {"measurement": "Hemoglobin increased, maximum Gr. 1 (number of patients)", "setting": "[1]; human", "result": 1}, {"measurement": "Lymphocyte count decreased, maximum Gr. 1 (number of patients)", "setting": "[1]; human", "result": 2}, {"measurement": "Lymphocyte count decreased, maximum Gr. 2 (number of patients)", "setting": "[1]; human", "result": 2}, {"measurement": "Lymphocyte count increased, maximum Gr. 2 (number of patients)", "setting": "[1]; human", "result": 1}, {"measurement": "Neutrophil count decreased, maximum Gr. 2 (number of patients)", "setting": "[1]; human", "result": 2}, {"measurement": "Platelet count decreased, maximum Gr. 1 (number of patients)", "setting": "[1]; human", "result": 2}, {"measurement": "White blood cell decreased, maximum Gr. 1 (number of patients)", "setting": "[1]; human", "result": 3}, {"measurement": "grade 3 anemia (number)", "setting": "[1]; human", "result": 1}, {"measurement": "grade 3 lymphopenia (number)", "setting": "[1]; human", "result": 2}, {"measurement": "recommended phase 2 dose (RP2D)", "setting": "[1]; human", "result": 240, "unit": "mg/m^2/dose"}, {"measurement": "Anemia, maximum Gr. 1 (number of patients)", "setting": "[1]; human, 1 cycle", "result": 9}, {"measurement": "Anemia, maximum Gr. 2 (number of patients)", "setting": "[1]; human, 1 cycle", "result": 3}, {"measurement": "Anemia, maximum Gr. 3 (number of patients)", "setting": "[1]; human, 1 cycle", "result": 1}, {"measurement": "Fatigue, maximum Gr. 1 (number of patients)", "setting": "[1]; human, 1 cycle", "result": 5}, {"measurement": "Fatigue, maximum Gr. 2 (number of patients)", "setting": "[1]; human, 1 cycle", "result": 3}, {"measurement": "Hypoalbuminemia, maximum Gr. 1 (number of patients)", "setting": "[1]; human, 1 cycle", "result": 2}, {"measurement": "Hypoalbuminemia, maximum Gr. 2 (number of patients)", "setting": "[1]; human, 1 cycle", "result": 2}, {"measurement": "Lymphocyte count decreased, maximum Gr. 1 (number of patients)", "setting": "[1]; human, 1 cycle", "result": 3}, {"measurement": "Lymphocyte count decreased, maximum Gr. 2 (number of patients)", "setting": "[1]; human, 1 cycle", "result": 5}, {"measurement": "Lymphocyte count decreased, maximum Gr. 3 (number of patients)", "setting": "[1]; human, 1 cycle", "result": 2}, {"measurement": "Nausea, maximum Gr. 1 (number of patients)", "setting": "[1]; human, 1 cycle", "result": 4}, {"measurement": "Nausea, maximum Gr. 2 (number of patients)", "setting": "[1]; human, 1 cycle", "result": 1}, {"measurement": "Neutrophil count decreased, maximum Gr. 1 (number of patients)", "setting": "[1]; human, 1 cycle", "result": 3}, {"measurement": "Neutrophil count decreased, maximum Gr. 2 (number of patients)", "setting": "[1]; human, 1 cycle", "result": 2}, {"measurement": "Platelet count decreased, maximum Gr. 1 (number of patients)", "setting": "[1]; human, 1 cycle", "result": 3}, {"measurement": "Vomiting, maximum Gr. 1 (number of patients)", "setting": "[1]; human, 1 cycle", "result": 4}, {"measurement": "Vomiting, maximum Gr. 2 (number of patients)", "setting": "[1]; human, 1 cycle", "result": 1}, {"measurement": "White blood cell decreased, maximum Gr. 1 (number of patients)", "setting": "[1]; human, 1 cycle", "result": 5}, {"measurement": "White blood cell decreased, maximum Gr. 2 (number of patients)", "setting": "[1]; human, 1 cycle", "result": 2}, {"measurement": "Sinus bradycardia", "setting": "[1]", "result": "not readily apparent"}, {"measurement": "tolerability", "setting": "[1]", "result": "well tolerated"}, {"measurement": "Tmax, median (range)", "setting": "[2]; Powder sprinkled on food, 240 mg/m^2 (n=9), Day 1 Cycle 1", "result": "2.0 (1.0–6.0) h"}, {"measurement": "inter-patient variability in Cmax and AUC0–8h", "setting": "[2]; across all dose levels", "result": 20, "unit": "fold"}, {"measurement": "AUC(0-t)", "setting": "[2]; human, plasma, oral, 170 mg/m2, AUC0–8h, Capsule, 170 mg/m^2 (n=6), Day 1 Cycle 1, with food", "result": 3820, "unit": "ng·h/mL"}, {"measurement": "Tmax", "setting": "[2]; human, plasma, oral, 200 mg/m2", "result": 4, "unit": "h"}, {"measurement": "AUC(0-t)", "setting": "[2]; human, plasma, oral, 200 mg/m2, AUC0–8h, Capsule, 200 mg/m^2 (n=7), Day 1 Cycle 1, with food", "result": 9470, "unit": "ng·h/mL"}, {"measurement": "Cmax", "setting": "[2]; human, plasma, oral, 200 mg/m2, Cmax, Capsule, 200 mg/m^2 (n=7), Day 1 Cycle 1, with food", "result": 2180, "unit": "ng/mL"}, {"measurement": "Tmax", "setting": "[2]; human, plasma, oral, 240 mg/m2", "result": 2, "unit": "h"}, {"measurement": "AUC(0-t)", "setting": "[2]; human, plasma, oral, 240 mg/m2, AUC0–8h, Capsule, 240 mg/m^2 (n=13), Day 1 Cycle 1, with food", "result": 5630, "unit": "ng·h/mL"}, {"measurement": "AUC(0-t)", "setting": "[2]; human, plasma, oral, 240 mg/m2, AUC0–8h, Powder sprinkled on food, 240 mg/m^2 (n=9), Day 1 Cycle 1", "result": 7300, "unit": "ng·h/mL"}, {"measurement": "Cmax", "setting": "[2]; human, plasma, oral, 240 mg/m2, Cmax, Capsule, 240 mg/m^2 (n=13), Day 1 Cycle 1, with food", "result": 1300, "unit": "ng/mL"}, {"measurement": "Cmax", "setting": "[2]; human, plasma, oral, 240 mg/m2, Cmax, Powder sprinkled on food, 240 mg/m^2 (n=9), Day 1 Cycle 1", "result": 1530, "unit": "ng/mL"}, {"measurement": "half-life", "setting": "[2]; human, plasma, oral, apparent elimination half-life, median, evaluable in 29 of 35 patients, range 1.2 – 18.0 hrs", "result": 2.7, "unit": "h"}, {"measurement": "Tmax", "setting": "[2]; human, plasma, po", "result": "~2", "unit": "h"}, {"measurement": "objective responses", "setting": "[3]; 32 patients evaluable for response, single agent", "result": "not observed; also recorded: no objective responses"}, {"measurement": "duration of stable disease", "setting": "[3]; patient with neuroblastoma, 28-day cycles", "result": 8, "unit": "cycles"}, {"measurement": "maximum tolerated dose (MTD)", "setting": "[4]; amorphous form (approximately 170 mg/m^2/dose)", "result": 300, "unit": "mg"}, {"measurement": "maximum tolerated dose (MTD)", "setting": "[4]; crystalline form (approximately 210 mg/m^2/dose)", "result": 360, "unit": "mg"}]}]}
